The values that follow come from article PMC10518255, “A first-in-class pan-lysyl oxidase inhibitor impairs stromal remodeling and enhances gemcitabine response and survival in pancreatic cancer” (Nature Cancer, 2023).

Where “and” joins values, the source holds several entries; their conditions need not be identical. Equal entries are not always repeated.

In assay [1] the test system is KPC mouse model of PDAC. The experiment in a line: Overt metastatic lesions observed during necropsy, KPC survival study. It is filed as in vivo. The following applies: for Ascites / overt metastatic lesions, Diaphragm / overt metastatic lesions, Liver / overt metastatic lesions, Lungs / overt metastatic lesions, Small intestine: KPC mice. As to the method: Fig. 4 PXS-5505 administered in a KPC in vivo survival study. a, Schematic of the KPC in vivo survival study. Presence of a primary tumor in KPC mice was confirmed by two independent researchers (positive diagnosis) before commencement of daily treatment (Tx) on one of four treatment arms as follows: vehicle, 0.9% saline; Gem, twice-weekly gemcitabine (100 mg kg^−1 i.p.); PXS-5505, daily PXS-5505 at 20 mg kg^−1 i.p.; and PXS-5505 + Gem, daily PXS-5505 at 20 mg kg^−1 i.p. + twice-weekly gemcitabine (100 mg kg^−1 i.p.). b, Table of median survival (since diagnosis/commencement of treatment) across the four treatment groups (n = 30 biologically independent animals (vehicle), n = 31 biologically independent animals (Gem), n = 36 biologically independent animals (PXS-5505), n = 46 biologically independent animals (PXS-5505 + Gem)). c, Kaplan–Meier curves for overall survival across treatment arms (n = 30 biologically independent animals (vehicle), n = 31 biologically independent animals (Gem), n = 36 biologically independent animals (PXS-5505), n = 46 biologically independent animals (PXS-5505 + Gem)). P values determined by log-rank (Mantel–Cox) test. d, Representative maximum intensity projections of SHG multiphoton imaging for tumors from each treatment group (n = 1 FOV taken from one biologically independent animal per group) at end point (scale bars, 100 μm) and quantification of SHG peak signal intensity (n = 5 biologically independent animals per group and five FOV per animal). Data are mean ± s.d. […] Quantification of metastases (n = 18 biologically independent animals (vehicle), n = 18 biologically independent animals (Gem), n = 17 biologically independent animals (PXS-5505), n = 15 biologically independent animals (PXS-5505 + Gem)). Data are mean ± s.d.
We quantified presence of overt metastatic dissemination to organs across the different treatment groups (Fig. 4f).
For the KPC autochthonous model, gemcitabine HCl (Jomar Life Research) or vehicle control (0.9% saline) was administered by i.p. injection twice weekly (100 mg kg^−1 in saline) on day 2 and 4 of the treatment cycle until the end point was reached. GLP-grade PXS-5505 (20 mg kg^−1 in saline) or vehicle (0.9% saline) was administered daily by i.p. injection. Treatment of mice was initiated upon detection of a palpable tumor, verified by two independent researchers and monitoring of mice continued daily until the experimental end point. End points were defined as development of ascites, overnight weight loss >10% of body weight, hunching posture and/or signs of distress and/or suffering, total weight loss ≥20% from maximum body weight or tumor interfering with mobility and access to food and water. The maximal tumor burden allowed by ethics was not exceeded. At the end point, primary tumors and secondary metastatic organs (including liver, small intestine, diaphragm and lungs) were collected and samples were taken for formalin fixation overnight, unconfined compression analysis and snap-frozen for tissue banking. Fixed tissues were processed according to standard histology protocols and paraffin-embedded.

Assay [2] concerns APMA human PDX tumors. The experiment in a line: APMA human PDX model, picrosirius red birefringence (Extended Data Fig. 5i). It is filed as in vivo, mouse. The following applies: for Quantification of green birefringent (nascent) collagen fibres: Extended Data 5I, human PDXs at endpoint, individual animals. As to the method: Subcutaneous PDX studies were performed by implanting early passage PDX pieces (~4 mm^3) or TKCC10 CCs (1.5 × 10^6 cells per mouse in 100 μl PBS/Matrigel 1:1) into female (PDX) or male (TKCC10) 8-week-old immunocompromised nude Balb/c-Fox1nuAusb mice subcutaneously on the left flank. For the duration of the study, mice were kept in conventional caging with environmental enrichment, access to standard chow, water ad libitum and 12-h light–dark cycle at ambient temperature and humidity. Treatment began when tumors reached 150 mm^3, where each mouse was randomized into a treatment group and administered gemcitabine HCl (100 mg kg^−1 in saline) (Jomar Life Research) or vehicle control (0.9% saline) by i.p. injection twice weekly on day 2 and 4 of the treatment cycle until an ethical end point was reached. These included maximal tumor mass ≥10% of body weight, weight loss ≥20% from maximum body weight or tumor interfering with mobility and affecting access to food and water. Animals with non-tumor-related complications that led to a premature end point were censored. […] Tumor size was monitored every second day by calipers. Tumor volume was calculated using the formula (length × width^2)/2. […]
For assessment of picrosirius red staining in KPC and APMA patient tumors, five representative regions of interest per section were analyzed for both brightfield and polarized light by a blinded reviewer using in-house automated analysis scripts as described previously[28],[34],[58] […]
Extended Data Fig. 5 PXS-5505 in combination with gemcitabine in vivo. a. […] Signal is defined as the enzyme activity in the aorta, while noise is measured in the presence of a high concentration (300 µM) BAPN to abolish any lysyl oxidase family activity. […] FITC-dextran (molecular weight: 10 kDa) signal quantification from KPC tumor end point from each treatment group (vehicle n = 3 biologically independent animals, PXS-5505 n = 5 biologically independent animals, Gem n = 5 biologically independent animals, PXS-5505 + Gem n = 5 biologically independent animals). […] P-values determined by Welchs t-test. […]

Consider `Nc1ccn([C@@H]2O[C@H](CO)[C@@H](O)C2(F)F)c(=O)n1` [Gem, gemcitabine], for which, in assay [1], the “Ascites (number of mice)” value was 1/20; the “overt metastatic lesions, Diaphragm (number of mice)” value is 3/20; the “overt metastatic lesions, Liver (number of mice)” value is 3/20; the “overt metastatic lesions, Lungs (number of mice)” value is reported as 5/20. In assay [1], the “overt metastatic lesions, Small intestine (number of mice)” value is on record as 9/20; the Ascites came out at 5%; the “overt metastatic lesions, Diaphragm” value is listed as 15%; the “overt metastatic lesions, Liver” value turned out to be 15%. In addition, in assay [1], the “overt metastatic lesions, Lungs” value came out at 25% and the “overt metastatic lesions, Small intestine” value was found to be 45%. Moreover, the “deposition of collagen I (picrosirius red birefringence)” value in assay [2] (APMA human PDX, three rounds of treatment) is on record as “increase in the deposition of collagen I”. The “Quantification of green birefringent (nascent) collagen fibres” value in assay [2] is 672.333 and 613 and 417.333 and 643.667 and 776 and 904.333 and 1865.67 and 529.667 and 397.667 and 278.

As for `Cl.Cl.NC/C=C(\F)CS(=O)(=O)c1cccc2cccnc12.O` [PXS-5505, (Z)-3-fluoro-4-(quinolin-8-ylsulfonyl)but-2-en-1-amine dihydrochloride monohydrate], in assay [1], the “Ascites (number of mice)” value is recorded as 3/23; the “overt metastatic lesions, Diaphragm (number of mice)” value is listed as 2/23; the “overt metastatic lesions, Liver (number of mice)” value is recorded as 3/23; the “overt metastatic lesions, Lungs (number of mice)” value is 2/23. In assay [1], the “overt metastatic lesions, Small intestine (number of mice)” value was 8/23; the Ascites came out at 13%; the “overt metastatic lesions, Diaphragm” value is given as 9%; the “overt metastatic lesions, Liver” value was 13%. Further, in assay [1], the “overt metastatic lesions, Lungs” value was 9% and the “overt metastatic lesions, Small intestine” value was determined as 35%. Moreover, the “Quantification of green birefringent (nascent) collagen fibres” value in assay [2] is 61.6667 and 1138 and 246 and 184 and 80.3333 and 99.6667 and 1125.33 and 424.667 and 169.333 and 108.
